The target in test [1] is T1, G-protein coupled bile acid receptor 1 (Homo sapiens, UniProt Q8TDU6).
T1 sequence (Q8TDU6 whole entry): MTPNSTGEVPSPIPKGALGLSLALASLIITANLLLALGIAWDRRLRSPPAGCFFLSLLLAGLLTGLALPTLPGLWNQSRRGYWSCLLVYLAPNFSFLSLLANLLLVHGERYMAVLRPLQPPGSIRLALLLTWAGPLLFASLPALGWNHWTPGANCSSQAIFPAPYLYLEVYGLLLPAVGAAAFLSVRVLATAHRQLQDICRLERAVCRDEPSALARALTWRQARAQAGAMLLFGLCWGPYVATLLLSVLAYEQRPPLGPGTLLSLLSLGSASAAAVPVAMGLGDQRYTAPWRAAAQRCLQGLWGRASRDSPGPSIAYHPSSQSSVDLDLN
The test is described as follows: Agonist activity at TGR5 (unknown origin) by TR-FRET assay. It is filed as functional.

For test [2], the target named is T1, G-protein coupled bile acid receptor 1. The test is described as follows: Agonist activity at human TGR5 expressed in HEK293 cells. It is filed as functional, cell-based.
Test [3] shares this target. Put plainly: Agonist activity at TGR5 (unknown origin) expressed in HEK293T cells assessed as cAMP level by TR-FRET analysis. It counts as functional, cell-based.
The target is the same in test [4]. Put plainly: Agonist activity at human TGR5. It counts as functional.

As for `O=C(c1cccnc1Oc1cc(Cl)ccc1Cl)N1CCCc2cc(F)ccc21`, the midpoint of the response in test [1], the EC50, lay at 20 nM.

In the case of `O=C(c1cccnc1Oc1cc(Cl)ccc1Cl)N1CCN(C2CC2)c2ccccc21`, the EC50 in test [1] was determined as 10 nM.

`Fc1cccc(F)c1-c1ccncc1CN1C(c2ccco2)=NOC1c1cc(C(F)(F)F)cc(C(F)(F)F)c1Cl` (configuration not stated): the response in test [2] was half-maximal at 15 nM (EC50).

Consider `COc1ccc(C(C)(C)c2cn(-c3ccc(F)cc3)c(SCc3c(F)cccc3Cl)n2)cc1OC`, for which the half-maximal effective concentration (EC50) in test [3] came out at 25 nM.

`O=C(c1cccnc1Oc1cc(Cl)ccc1Cl)N1CCCc2cc(F)c(F)cc21`: in test [1], the EC50 is 50 nM.

In test [4], `COc1ccc(S(=O)(=O)N2CCN(S(=O)(=O)c3ccc(OC)c(OC)c3)CC2)cc1OC` showed an EC50 of 1300 nM.

As to `O=C(c1cccnc1Oc1cc(Cl)ccc1Cl)N1CCCc2ccc(F)cc21`, a half-maximal effect in test [1] (EC50) was put at 50 nM.

For the origin of these results see ChEMBL document CHEMBL6078626, “Recent advancements in the structural exploration of TGR5 agonists for diabetes treatment” (RSC Med Chem, 2024).
